Earlier results on two substances are cited in US20210236604A1, “THERAPEUTIC TREATMENT FOR NEUROTROPHIC KERATOPATHY” (priority 2017, published 2021).

Series [1] has as its system sub-basal plexus corneal nerves. Conditions: diabetic mice; Chen 2013; cited from earlier work.
In series [2] the test system is corneal abrasions. Conditions: diabetic rats, cited from earlier work.
The test system of series [3] is decubitus ulcers. To be noted: Van Ort 1976; cited from earlier work.
Series [4] concerns corneal ulcers. To be noted: systemic administration; Aynsley 1945; cited from earlier work.
Series [5] relates to experimentally-induced superficial skin wounds. To be noted: diabetic and non-diabetic individuals; Greenway 1999; cited from earlier work.
Series [6] deals with corneal epithelium wound healing. To be noted: with substance-P; Nishida 2009; cited from earlier work.

For insulin [topical insulin], the “loss of sub-basal plexus corneal nerves” value in series [1] is on record as “slow the loss”. For the same substance, in series [2] (Zagon 2007, Klocek 2009), the “wound healing after corneal abrasions” value is “improves wound healing”. In addition, the corneal sensation entry in series [2] (Zagon 2007) is recorded as “improves corneal sensation”. For the same substance, the “healing of decubitus ulcers” value in series [3] is on record as “improve healing”. Besides, the “healing of corneal ulcers” value in series [4] is “improved healing of corneal ulcers”. Further, the “healing of experimentally-induced superficial skin wounds” value in series [5] is given as “improve healing”.

In the case of Insulin-like growth factor-1 [IGF-1], the “corneal epithelium wound healing” value in series [6] was “act synergistically with substance-P to promote corneal epithelium wound healing”.
